US4436732A, “Medicated compound for treating diseases infected by virus of the herpes group” (priority 1981, dated 1984)

Experiments:
[1] = system: vessels of an isolated rabbit's ear; assay: vasodilative effect on vessels of an isolated rabbit's ear
From the text: (§1) The cardiological effect of the active principle has been studied in experiments on an isolated cat's heart; the effect on electrocardiographic characteristics has been studied in experiments on rabbits; the vasodilative effect--on vessels of an isolated rabbit's ear; the spasmolytic effect--on acetylcholine and barium spasms of smooth muscles of an isolated section of a rat's small intestine.

[2] = effect on characteristics of blood coagulation; format: in vivo, rabbits; conditions: per os, 50 mg/kg, during 4 hours
Experimental: The study of the effect of the active principle on certain characteristics of blood coagulation has been carried out on 5 rabbits. The compound is administered per os in the dose of 50 mg/kg as a suspension in a 2% starch paste. Blood has been examined prior to the administration and during 4 hours after a single-time administration of the suspension; determined are: blood plasma recalcification, thrombin time, thrombelastographic characteristics and thrombocyte concentration.

[3] = acute toxicity and tolerance; set-up: species or system white mice, rats, guinea pigs and dogs; conditions: in vivo
Experimental: The study of an acute toxicity and tolerance of the active principle and the medicated compound in the form of tablets has been carried out on white mice, rats, guinea pigs and dogs with different modes of administration.
The active principle and tablets of the are administered in the form of an aqueous suspension hypodermally, intraperitoneally and in stomach.

[4] = effect on hemodynamics and breathing, acute experiment on narcotized cats; format: in vivo; conditions: 50 mg/kg intra-stomach
Experimental: The study of the effect of this compound on the characteristics of hemodynamics and breathing has been carried out in an acute experiment on 6 narcotized cats (urethane 1.0 g/kg, chloralose 60 mg/kg) upon the intra-stomach administration of the active principle in the dose of 50 mg/kg. In each cat simultaneously recorded were the breathing frequency cardiac contraction frequency, systemic arterial pressure, amplitude of the volume blood flow in the abdominal aorta, amplitude of the brain rheograms and femur muscles rheorgrams.

[5] = cardiological effect / electrocardiographic characteristics; format: in vivo, rabbits; conditions: for increase of amplitude of cardiac contractions: P=0.05
From the text: as §1
The studies have shown that upon the intravenous administration to rabbits of the active principle in the dose of 20 mg/kg it causes increased amplitude of cardiac contractions by 34% (P=0.05), in the dose of 50 mg/kg--by 41% (P=0.05); rarefaction of the rhythm of cardiac contractions in rabbits by 10-18% on the average and increase of the voltage of the peak P by 32%. […] A slight increase of the voltage of the peak P on the average by 20% is observed.

[6] = effect on the intensity of bile secretion, acute tests; format: in vivo, cats; conditions: 20 and 50 mg/kg
From the text: In acute tests on cats the effect of the active principle on the intensity of bile secretion has been studied.

[7] = anti-ulcerous effect on the model of caffeine-arsenic ulcer; format: in vivo, rats; conditions: per os for nine days, 20 mg/kg
Experimental: The anti-ulcerous effect of the active principle has been studied on the model of caffeine-arsenic ulcer in rats. The substance is administered per os for nine days in the doses of 1, 10 and 20 mg/kg.

[8] = intra-stomach, 50 and 150 mg/kg

For `O=c1c2cc(O)c(O)cc2oc2cc(O)c([C@@H]3O[C@H](CO)[C@@H](O)[C@H](O)[C@H]3O)c(O)c12` [active principle, 2-C-β-D-glucopyranosyl-1,3,6,7-tetraoxyxanthone], the mutagenous activity (mutagenous activity) was “no mutagenous activity”, the vasodilative effect [1] was “no vasodilative” and the “effect on the blood coagulation process” value [2] was “does not substantially affect”. The “toxicity (overall)” value [3] was “low-toxic”, the LD50 ([3]; ip, intraperitoneal) was 3000 to 4000 mg/kg and the LD50 ([3]; po, in-stomach) was 10000 mg/kg. The LD50 ([3]; sc, hypodermal) was > 5000 mg/kg, the “other characteristics of hemodynamics” value ([4]; narcotized cats) was “not substantially changed” and the systemic arterial pressure ([4]; narcotized cats) was “slightly lowers”. For the same compound, the “reduction of arterial pressure” value ([4]; 60 and 90 minutes) was “do not differ from the control”, the “reduction of breathing frequency vs control” value ([4]; 60 and 90 minutes) was “do not differ from the control” and the “reduction of breathing frequency” value ([4]; 10 minutes, P below 0.05) was 21%. For the same compound, the “reduction of breathing frequency” value ([4]; 30 minutes, P below 0.01) was 32%, the “effect on duration of intervals of the cardiac cycle” value [5, 8] was “no substantial effect” and the “effect on the rhythm of cardiac contractions” value [5, 8] was “no substantial effect”. For the same compound, the “increase of the voltage of the peak P” value ([5]; intra-stomach, 50 and 150 mg/kg, on the average) was 20%, the “increase of the voltage of the peak P” value ([5]; intravenous, rabbits) was 32% and the “increase of amplitude of cardiac contractions” value ([5]; intravenous, rabbits, 20 mg/kg) was 34%. For the same compound, the “increase of amplitude of cardiac contractions” value ([5]; intravenous, rabbits, 50 mg/kg) was 41%, the “rarefaction of the rhythm of cardiac contractions” value ([5]; intravenous, rabbits, on the average) was 10-18% and the cardiostimulant effect ([5]; rabbit, in vivo) was “slight cardiostimulant effect”. The bile secretion intensity [6] was “does not increase” and the anti-ulcerous effect [7] was “weak anti-ulcerous effect”.
